Measured values as given in patent publication US20080213250A1, “Use of Eph Receptor Inhibitors for the Treatment of Neurodegenerative Diseases” (priority 2004, published 2008).

Experiments:
[1] = system: TAP-tagged Eph kinases; assay: Autophosphorylation of TAP-tagged Eph kinases in-vitro; format: biochemical; settings: data not shown
[2] = system: TAP-tagged Eph kinases; assay: Autophosphorylation of TAP-tagged Eph kinases in cells; format: cell-based; settings: in cells (FIG. 2)
Protocol: Cells are plated in 6-well plates in growth medium (see above). To test potential modulators, preferably inhibitors, of Eph kinase tyrosine phosphorylation, cells are starved in serum-free medium for 4 h. Under these conditions, Eph-TAP kinase is partially constitutively phosphorylated-presumably through autophosphorylation that is commonly associated with over-expression of receptor tyrosine kinases. This feature is exploited to monitor the effect of Eph kinase modulators. Test compounds are diluted (from a stock in DMSO) in serum-free medium and added to cells for indicated times. Cells are chilled on ice and washed with ice-cold PBS. They are then lysed in 300 μl lysis buffer (50 mM Tris-HCl, 1% NP-40, 0.05% SDS, 100 mM NaCl, 1.5 mM MgCl2, 2 mM EDTA, 5% glycerol, pH 7.6) for 20 min at 4 °C and cleared by centrifugation at 16,100×g in a table-top centrifuge for 20 min.
(§1) Lysates are subsequently incubated with 20 μl pre-washed rabbit IgG beads (Sigma) for 2 h with constant agitation at 4° C. Beads are finally washed with 1 ml of lysis buffer and immobilized protein complexes are eluted by boiling in 40 μl SDS sample buffer.
Blot membranes are probed with monoclonal antibody 4G10 (Upstate Biotechnology) or with HRP-coupled PAP antibody (see above).

[3] = target: T1, EphB2-TAP (Homo sapiens, UniProt P29323); assay: Cellular Eph kinase tyrosine phosphorylation assay; format: cell-based; settings: SK-N-BE2 neuroblastoma cells, treatment 10 min. at 37 °C, Western blot anti-phosphotyrosine
T1 construct: The cDNAs encoding the complete ORF are obtained by RT-PCR; expressed in transfected cells; host or cells: SK-N-BE2 neuroblastoma cells (ATCC CRL-2271), retroviral transduction
T1 sequence (P29323 19-1055): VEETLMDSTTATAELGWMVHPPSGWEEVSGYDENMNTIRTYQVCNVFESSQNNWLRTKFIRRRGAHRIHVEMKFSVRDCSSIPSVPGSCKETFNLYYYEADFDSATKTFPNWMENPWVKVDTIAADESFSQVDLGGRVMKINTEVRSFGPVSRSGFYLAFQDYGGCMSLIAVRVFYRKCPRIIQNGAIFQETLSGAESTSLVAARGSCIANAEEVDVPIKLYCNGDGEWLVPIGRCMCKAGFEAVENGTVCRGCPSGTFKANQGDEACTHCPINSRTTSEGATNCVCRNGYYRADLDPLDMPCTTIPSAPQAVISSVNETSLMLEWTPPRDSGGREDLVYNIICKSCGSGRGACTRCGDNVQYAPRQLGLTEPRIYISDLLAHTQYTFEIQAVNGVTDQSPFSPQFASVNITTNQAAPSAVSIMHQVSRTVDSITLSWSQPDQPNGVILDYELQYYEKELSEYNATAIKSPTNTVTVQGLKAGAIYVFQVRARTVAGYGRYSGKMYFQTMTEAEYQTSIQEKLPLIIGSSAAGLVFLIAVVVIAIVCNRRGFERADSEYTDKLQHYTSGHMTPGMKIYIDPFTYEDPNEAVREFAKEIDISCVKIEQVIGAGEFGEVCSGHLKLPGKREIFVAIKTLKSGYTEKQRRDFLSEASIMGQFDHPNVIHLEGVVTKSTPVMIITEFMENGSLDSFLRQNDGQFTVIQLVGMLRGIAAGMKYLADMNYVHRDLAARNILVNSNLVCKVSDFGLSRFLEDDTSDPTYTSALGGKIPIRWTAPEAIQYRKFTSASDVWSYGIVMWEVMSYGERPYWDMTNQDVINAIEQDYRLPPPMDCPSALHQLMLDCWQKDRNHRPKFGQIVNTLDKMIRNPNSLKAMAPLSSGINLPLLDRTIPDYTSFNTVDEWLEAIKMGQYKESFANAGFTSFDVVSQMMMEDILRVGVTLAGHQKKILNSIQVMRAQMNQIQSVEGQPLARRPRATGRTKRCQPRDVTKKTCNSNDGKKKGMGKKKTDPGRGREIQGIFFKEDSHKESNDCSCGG
Protocol: (§2) Following treatment, cells were lysed in a detergent-containing buffer and TAP-tagged Eph kinases were captured with IgG beads. Bound TAP-tagged proteins were analyzed by SDS-PAGE and Western blotting, utilizing either anti-phosphotyrosine or anti-TAP antibodies for detection.
(§3) Cells are plated in 6-well plates in growth medium (see above). […] This feature is exploited to monitor the effect of Eph kinase modulators. Test compounds are diluted (from a stock in DMSO) in serum-free medium and added to cells for indicated times. Cells are chilled on ice and washed with ice-cold PBS. They are then lysed in 300 μl lysis buffer (50 mM Tris-HCl, 1% NP-40, 0.05% SDS, 100 mM NaCl, 1.5 mM MgCl2, 2 mM EDTA, 5% glycerol, pH 7.6) for 20 min at 4 °C and cleared by centrifugation at 16,100×g in a table-top centrifuge for 20 min.
as §1

[4] = target: T2, EphA4-TAP (Homo sapiens, UniProt P54764); assay: Cellular Eph kinase tyrosine phosphorylation assay; format: cell-based; settings: SK-N-BE2 neuroblastoma cells, treatment 10 min. at 37 °C, Western blot anti-phosphotyrosine
T2 construct: The cDNAs encoding the complete ORF are obtained by RT-PCR; expressed in transfected cells; host or cells: SK-N-BE2 neuroblastoma cells (ATCC CRL-2271), retroviral transduction
T2 sequence (P54764 20-986): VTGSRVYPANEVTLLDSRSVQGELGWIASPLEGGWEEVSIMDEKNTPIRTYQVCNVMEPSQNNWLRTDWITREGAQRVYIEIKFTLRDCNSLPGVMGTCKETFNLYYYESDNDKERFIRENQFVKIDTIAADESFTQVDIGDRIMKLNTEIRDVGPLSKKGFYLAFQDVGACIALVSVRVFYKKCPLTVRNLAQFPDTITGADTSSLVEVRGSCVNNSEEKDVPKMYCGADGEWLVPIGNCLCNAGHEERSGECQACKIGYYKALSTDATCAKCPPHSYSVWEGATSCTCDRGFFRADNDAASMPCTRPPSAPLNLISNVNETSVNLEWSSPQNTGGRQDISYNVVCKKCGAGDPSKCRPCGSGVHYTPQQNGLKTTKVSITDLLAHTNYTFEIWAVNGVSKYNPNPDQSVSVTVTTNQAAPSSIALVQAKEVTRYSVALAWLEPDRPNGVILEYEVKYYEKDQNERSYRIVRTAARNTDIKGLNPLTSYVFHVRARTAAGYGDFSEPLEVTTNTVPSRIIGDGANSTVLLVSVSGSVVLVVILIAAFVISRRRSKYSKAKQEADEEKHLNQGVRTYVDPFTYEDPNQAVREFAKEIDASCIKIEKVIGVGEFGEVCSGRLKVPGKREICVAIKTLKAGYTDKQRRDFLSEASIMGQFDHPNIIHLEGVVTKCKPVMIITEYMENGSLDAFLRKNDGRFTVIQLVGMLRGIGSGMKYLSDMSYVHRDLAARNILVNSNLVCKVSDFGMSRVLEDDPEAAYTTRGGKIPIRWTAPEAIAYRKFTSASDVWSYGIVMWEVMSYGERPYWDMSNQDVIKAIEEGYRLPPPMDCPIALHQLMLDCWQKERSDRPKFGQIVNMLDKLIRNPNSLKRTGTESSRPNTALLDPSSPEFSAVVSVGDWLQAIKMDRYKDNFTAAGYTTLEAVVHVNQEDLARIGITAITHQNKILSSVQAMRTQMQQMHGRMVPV
Protocol: as §2, §3, §1

[5] = target: T3, EphA6 (Mus musculus, UniProt Q62413); assay: Chemical proteomics pull-down with immobilized compound, LC-MS/MS identification; settings: maximum in any chemical proteomics experiment
T3 sequence (Q62413 23-1035): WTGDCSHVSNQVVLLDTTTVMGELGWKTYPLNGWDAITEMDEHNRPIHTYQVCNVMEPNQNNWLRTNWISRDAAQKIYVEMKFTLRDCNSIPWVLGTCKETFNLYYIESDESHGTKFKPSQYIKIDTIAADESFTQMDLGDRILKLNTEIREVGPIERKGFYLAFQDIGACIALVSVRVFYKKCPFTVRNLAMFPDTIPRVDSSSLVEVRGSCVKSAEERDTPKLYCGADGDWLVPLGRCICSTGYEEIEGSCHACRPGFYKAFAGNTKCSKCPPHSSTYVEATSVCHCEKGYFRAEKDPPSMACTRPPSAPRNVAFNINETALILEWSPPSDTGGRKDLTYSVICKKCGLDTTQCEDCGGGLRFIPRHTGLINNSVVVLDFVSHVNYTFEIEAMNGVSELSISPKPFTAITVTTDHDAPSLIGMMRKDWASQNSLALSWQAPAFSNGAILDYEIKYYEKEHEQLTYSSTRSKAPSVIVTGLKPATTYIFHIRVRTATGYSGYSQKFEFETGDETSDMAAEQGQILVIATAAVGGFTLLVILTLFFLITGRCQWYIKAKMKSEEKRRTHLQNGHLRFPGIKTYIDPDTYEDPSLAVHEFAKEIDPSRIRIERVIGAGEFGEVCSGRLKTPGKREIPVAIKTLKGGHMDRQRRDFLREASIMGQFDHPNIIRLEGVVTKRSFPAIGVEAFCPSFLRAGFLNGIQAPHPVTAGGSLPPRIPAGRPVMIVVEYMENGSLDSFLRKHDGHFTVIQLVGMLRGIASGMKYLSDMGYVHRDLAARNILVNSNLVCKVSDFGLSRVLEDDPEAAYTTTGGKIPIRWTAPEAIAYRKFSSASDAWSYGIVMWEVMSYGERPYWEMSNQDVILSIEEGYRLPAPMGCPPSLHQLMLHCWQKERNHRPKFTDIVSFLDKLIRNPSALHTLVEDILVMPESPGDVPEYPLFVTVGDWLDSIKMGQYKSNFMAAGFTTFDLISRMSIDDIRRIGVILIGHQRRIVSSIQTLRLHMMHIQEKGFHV

Structure (SMILES): Cc1ccc(NC(=O)c2ccc(CN3CCN(C)CC3)cc2)cc1Nc1nccc(-c2cccnc2)n1 [Gleevac]
- inhibition of autophosphorylation of TAP-tagged Eph kinases in-vitro [1]: potent inhibitors
- inhibition of autophosphorylation of TAP-tagged Eph kinases in cells [2]: potent inhibitors
- tyrosine phosphorylation of EphB2-TAP [3]: inhibits tyrosine phosphorylation of Eph kinases in a concentration-dependent manner
- tyrosine phosphorylation of EphA4-TAP [4]: inhibits tyrosine phosphorylation of Eph kinases in a concentration-dependent manner

Structure (SMILES): NCCCn1cc(C2=C(c3c[nH]c4ccccc34)C(=O)NC2=O)c2ccccc21 [BisIII]
- maximal number of non-redundant peptides identified, EphA6 [5]: 7
